Source: US10981932B2, “Macrocyclic indole derivatives” (Bayer Aktiengesellschaft, priority 2016, dated 2021)
pIC50: −log10 of the molar value. Like-named read-outs stand apart in the source and are kept apart here.

Legend:
[1] = 11-membered ring
SUDHL5 [2] = assay: Induction of caspase-3/7 activity (Caspase-Glo 3/7), SUDHL5; format: cell-based; settings: caspase-3/7 induction, SUDHL5 cells, 3 h treatment; median
Outline: (§1)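 Caspase-Glo 3/7 luminescence, 3 h compound exposure, 37 °C, humidified. Minus medium-only blank. EC50 fit: C0=1, plateau = reference max induction.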

SUDHL10 [3] = assay: Anti-proliferative effect (CellTiter-Glo, 72 h), SUDHL10; format: cell-based; settings: SUDHL10 cells, antiproliferation, 72 h incubation, median, read-out: Antiproli SUDHL10 [M] (median)
Outline: (§2)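 CTG luminescence read-out after 72 h compound exposure, 37 °C, humidified. Time-zero reference plate read at plating.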

SUDHL5 [4] = test system: SUDHL5
SUDHL5 [5] = assay: Anti-proliferative effect (CellTiter-Glo, 72 h), SUDHL5; format: cell-based; settings: SUDHL5 cells, antiproliferation, median, read-out: Antiproli SUDHL5 [M] (median)
Outline: as §2

SUDHL10 [6] = test system: SUDHL10
MV-4-11 = assay: Anti-proliferative effect (CellTiter-Glo, 72 h), MV-4-11; format: cell-based; settings: MV-4-11 cells, median, read-out: IC50 antiproliferation assay MV-4-11 [M] (median)
Outline: as §2

MCL-1 = MCL-1 (Homo sapiens, UniProt Q07820); assay: Protein-protein interaction assay MCL-1/Noxa BH3 peptide (MCL-1 assay), TR-FRET; format: binding; settings: MBP-MCL-1 / Noxa BH3-derived peptide, median
Chain of MCL-1 (Q07820 whole entry): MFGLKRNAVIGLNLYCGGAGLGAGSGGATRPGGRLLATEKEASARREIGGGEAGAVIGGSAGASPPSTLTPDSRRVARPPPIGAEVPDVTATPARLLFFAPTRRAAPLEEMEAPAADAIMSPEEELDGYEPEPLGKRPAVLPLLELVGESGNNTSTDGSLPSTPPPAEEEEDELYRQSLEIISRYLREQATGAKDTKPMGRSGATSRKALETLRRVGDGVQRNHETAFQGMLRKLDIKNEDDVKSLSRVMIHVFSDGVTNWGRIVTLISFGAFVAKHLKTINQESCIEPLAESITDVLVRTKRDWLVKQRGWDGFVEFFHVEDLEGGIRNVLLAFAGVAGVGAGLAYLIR
Outline: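 Displacement of the biotinylated Noxa BH3 peptide from MBP-tagged human MCL-1 (1 nM) is detected by time-resolved FRET. Compounds are tested in duplicate across eleven concentrations up to 20 μM, incubated 1 h at 22 °C and overnight at 4 °C, and IC50 is fitted with a four-parameter equation.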

OPM2 = assay: Anti-proliferative effect (CellTiter-Glo, 72 h), OPM2; format: cell-based; settings: OPM2 cells, median, read-out: IC50 antiproliferation assay OPM2 [M] (median)
Outline: as §2

SUDHL10 [7] = assay: Induction of caspase-3/7 activity (Caspase-Glo 3/7), SUDHL10; format: cell-based; settings: caspase-3/7 induction, SUDHL10 cells, 3 h treatment; median
Outline: as §1

A2780 = assay: Anti-proliferative effect (CellTiter-Glo, 72 h), A2780; format: cell-based; settings: A2780 cells, median, read-out: IC50 antiproliferation assay A2780 [M] (median)
Outline: as §2

| Compound | EC50 (SUDHL5 [2]) [µM] | pIC50 (SUDHL5 [4]) | pIC50 (SUDHL10 [6]) | IC50 (MV-4-11) [M] | IC50 (MCL-1) [µM] | EC50 (SUDHL10 [7]) [µM] | IC50 (A2780) [M] | other results |
| --- | --- | --- | --- | --- | --- | --- | --- | --- |
| (rac)-(E/Z)-ethyl-1,3-dimethyl-7-[3-(naphthalen-1-yloxy)propyl]-1,10,13,15-tetrahydropyrazolo[4′,3′:9,10][1,6]oxazacycloundecino[8,7,6-hi]indole-8-carboxylate |  |  |  |  |  |  |  | ring closure, isolated yield ([1]; rcm bond, Grubbs II (10 mol%), DCM, 77.0 mM): 57% |
| CCOC(=O)c1[nH]c2c(-c3c(CO)nn(C)c3CC)cccc2c1CCCO[Si](C)(C)C(C)(C)C |  |  |  |  |  |  |  | ring closure, isolated yield ([1]; the molecule shown is the open-chain precursor, crosslinker bond, (2Z)-1,4-dichlorobut-2-ene/NaH, DMF, 65.6 mM): 75.3% |
| CN1CCCn2c(C(=O)O)c(CCCOc3cccc4ccccc34)c3cccc(c32)-c2c(CCN3CCOCC3)nn(C)c2C1 (single isomer, unassigned; enantiomer 1) [Example 125, 7,9-dimethyl-11-[2-(morpholin-4-yl)ethyl]-1-[3-(naphthalen-1-yloxy)propyl]-4,5,6,7,8,9-hexahydropyrazolo[3′,4′:7,8][1,5]diazecino[9,10,1-hi]indole-2-carboxylic Acid (Enantiomer 1)] | 6.2 | 5.20 | 4.86 | 2.02e-06 | 0.0108 | 14 | 8.42e-06 | IC50 (SUDHL10 [3]): 7.66e-06 M; IC50 (SUDHL5 [5]; 72 h incubation): 2.53e-06 M; IC50 (OPM2): 1.15e-05 M |
| CCc1nn(C)c2c1-c1cccc3c(CCCOc4cccc5cc(C(F)(F)F)ccc45)c(C(=O)O)n(c13)CCCCOC2 (racemic) [Example 313, (rac)-12-ethyl-10-methyl-1-(3-((6-(trifluoromethyl)naphthalen-1-yl)oxy)propyl)-4,5,6,7,9,10-hexahydropyrazolo[4′,3′:9,10][1,6]oxaazacycloundecino[8,7,6-hi]indole-2-carboxylic Acid] | > 33 | 4.51 | 4.57 | 2e-05 | 0.0999 | > 33 | 1.05e-05 | IC50 (SUDHL5 [5]; 72 h): 7.48e-06 M |
| CCOC(=O)c1[nH]c2c(-c3c(CC)nn(C)c3CO)c(C)ccc2c1CCCO[Si](C)(C)C(C)(C)C |  |  |  |  |  |  |  | ring closure, isolated yield ([1]; the molecule shown is the open-chain precursor, crosslinker bond, (2Z)-1,4-dichlorobut-2-ene/NaH, DMF, 65.1 mM): 68.9% |
| CCc1c2c(nn1C)COCCCCn1c(C(=O)O)c(CCCOc3cccc4cc(F)ccc34)c3cccc-2c31 (racemic) [Example 281, (rac)-3-ethyl-7-{3-[(6-fluoronaphthalen-1-yl)oxy]propyl}-2-methyl-2,10,11,12,13,15-hexahydropyrazolo[4′,3′:9,10][1,6]oxazacycloundecino[8,7,6-hi]indole-8-carboxylic Acid] | 1.45 | 5.73 | 5.59 | 4.74e-06 | 0.00163 | 2.78 | 1.39e-05 | IC50 (SUDHL10 [3]): 6.99e-06 M; IC50 (SUDHL5 [5]; 72 h incubation): 2.48e-06 M |
| (rac)-(E/Z)-ethyl-2,3-dimethyl-7-[3-(naphthalen-1-yloxy)propyl]-2,10,13,15-tetrahydropyrazolo[4′,3′:9,10][1,6]oxazacycloundecino[8,7,6-hi]indole-8-carboxylate |  |  |  |  |  |  |  | ring closure, isolated yield ([1]; rcm bond, Grubbs II (10 mol%), DCM, 77.8 mM): 15% |
| CCOC(=O)c1[nH]c2c(-c3c(CO)nn(CCN4CCOCC4)c3C)c(C)ccc2c1CCCO[Si](C)(C)C(C)(C)C |  |  |  |  |  |  |  | ring closure, isolated yield ([1]; the molecule shown is the open-chain precursor, crosslinker bond, (2Z)-1,4-dichlorobut-2-ene/NaH, DMF, 65.7 mM): 48.3% |
